{
  "source": "patent US10314834B2",
  "about": "“Therapeutic agent or treatment method for Philadelphia chromosome-positive (Ph+) acute lymphocytic leukemia (ALL) having IKZF1 mutation” (UNIVERSITY OF YAMANASHI, priority 2015, dated 2019)",
  "key": {"[1]": {"test_system": "Ph+ALL cell strain (KOPN57bi)", "assay": "Apoptosis by active caspase-3 antibody, flow cytometry", "type": "cell-based, human", "conditions": "LMD 20 μM, IM 0.5 μM, 3 days, compared with no addition", "text": "After fixation of cell membrane, the cells were stained with anti-active caspase-3 antibodies and positive cells were investigated by using flow cytometry."}, "[2]": {"test_system": "Ph+ALL cell strain (KOPN57bi)", "assay": "Cell turnover by PI staining, flow cytometry", "type": "cell-based, human", "conditions": "LMD 20 μM, IM 0.5 μM, 3 days", "method": "When PI staining is performed under the condition that the cell membrane/nuclear membrane is fixed with a drug and PI can freely bind to intranuclear DNA, staining intensity changes depending on amount of DNA. Thus, cell turnover stop phase (G0/G1 phase, 2N), DNA synthesis phase (S phase, 2N→4N), pre-cell division phase (G2 phase, 4N) and cell division phase (M phase, 4N→2N) can be distinguished each other by using flow cytometry. In addition, when the cell death is induced by apoptosis, a cell fraction that DNA amount decreases by DNA cleavage (less than 2N) from the G0/G1 phase is detected."}, "[3]": {"test_system": "Ph+ALL cell strain (KOPN57bi)", "assay": "Immunodeficient mice transplanted with Ph+ALL cells, in vivo", "design": "species or system NOD/SCID/γ null mouse (NOG mouse)", "conditions": "NOG mouse; LMD 30 mg/kg/day, IM 150 mg/kg/day, PO; two weeks after administration; saline approximately 30%", "excerpt": "NOD/SCID/γ null mouse (NOG mouse) is widely used for research as immunodeficient mouse capable of efficiently transplanting human hematopoietic stem cells or tumor cells. A mouse transplanted with human leukemia cells is a system that can study therapeutic effect of a drug on human leukemia cells in the mouse body (in vivo). […] The mice were observed over time. Proportion of Ph+ALL cells in mononuclear cell fraction was investigated by using flow cytometry after isolating mononuclear cell fraction from mouse bone marrow blood two weeks after administration and staining with anti-human CD45 antibody binding to human leukemia cells."}, "[4]": {"test_system": "Ph+ALL cell strain (KOPN57bi)", "assay": "Viable cells by alamar blue method", "type": "cell-based, human", "conditions": "LMD 20 μM, IM 0.5 μM, 3 days"}, "[5]": {"test_system": "Ph+ALL cell strain (KOPN57bi)", "assay": "Cell death by Annexin V/propidium iodide (PI) double staining, flow cytometry", "conditions": "Homo sapiens, 72 h, read-out: viable cell fraction (Annexin V-, PI-)", "text": "At an early stage of cell death, specific phospholipids are exposed on the cell membrane. By labeling Annexin V, which strongly binds to the phospholipid, with a fluorescent dye, rate of the early cell death can be detected by using flow cytometry. On the other hand, at a late stage of cell death, cell membrane/nuclear membrane is partially destroyed."}, "[6]": {"test_system": "Ph+ALL strain KOPN57bi", "assay": "H^3-thymidine uptake method, Ph+ALL strain KOPN57bi", "type": "cell-based", "conditions": "Homo sapiens, 144 h, read-out: % inhibition of H^3-thymidine uptake", "text": "Effect in the combination was recognized from 2 days in the culture, and % inhibition reached to 90% or more on 3 days in the culture."}, "[7]": {"test_system": "IKZF1 protein", "assay": "Change of IKZF1 expression by western blotting", "type": "cell-based, human", "conditions": "KOPN57bi; LMD 20 μM, IM 0.5 nM; 24 hours"}},
  "data": [
    {"smiles": "Nc1cccc2c1CN(C1CCC(=O)NC1=O)C2=O", "note": "(racemic) [LMD, (RS)-3-(4-amino-1-oxo-3H-isoindol-2-yl) piperidine-2,6-dione]", "values": [
      {"measurement": "active caspase-3 positive rate", "setting": "[1]", "value": "slightly increased"},
      {"measurement": "S phase fraction", "setting": "[2]", "value": "decrease"},
      {"measurement": "apoptotic fraction (less than 2N)", "setting": "[2]", "value": "mild increase"},
      {"measurement": "proportion of Ph+ALL cells (human CD45 positive) in bone marrow mononuclear cell fraction", "setting": "[3]", "value": 2.1, "unit": "%"},
      {"measurement": "number of viable cells (alamar blue)", "setting": "[4]", "value": "mildly decreased"},
      {"measurement": "viability at 20 µM", "setting": "[5]", "value": "~60", "unit": "%"},
      {"measurement": "inhibition at 20 µM", "setting": "[6]", "value": "~80", "unit": "%"}
    ]},
    {"smiles": "Cc1ccc(NC(=O)c2ccc(CN3CCN(C)CC3)cc2)cc1Nc1nccc(-c2cccnc2)n1", "note": "[IM, 4-(4-Methylpiperazin-1-ylmethyl)-N-[4-methyl-3-(4-pyridin-3-ylpyrimidin-2-ylamino)benzamide monomethanesulfonate]", "values": [
      {"measurement": "active caspase-3 positive rate", "setting": "[1]", "value": "slightly increased"},
      {"measurement": "number of viable cells (alamar blue)", "setting": "[4]", "value": "mildly decreased"},
      {"measurement": "expression of dominant-negative isoform (Ik 6)", "setting": "[7]", "value": "No change"}
    ]}
  ]
}
